Experiment [1] deals with mouse neonatal primary cardiomyocyte culture. The experiment can be described thus: Oxygen-glucose deprivation/reoxygenation injury in primary cardiomyocytes. It is filed as cell-based. Conditions: for amelioration of loss of cell number: Hoechst 33342 staining; for reduction of apoptosis: caspase 3/7 activation. The protocol:
In vitro ischemic injury was induced in mouse neonatal primary cardiomyocyte culture by oxygen-glucose deprivation for 18 hours and a 24 hours reoxygenation period in a humidified incubator with 5% CO2/95% air. Cardiomyocytes were incubated with the test compounds during 4 hours prior to the oxygen glucose depriviation (OGD) induction. The test compounds were also present during the OGD insult and during the 24 h-reoxygenation period. After the reoxygenation period, cell number was assessed by Hoechst 33342 staining, apoptosis was measured by determining caspase 3/7 activation, and cell membrane integrity or necrosis was measured as LDH release.
Data were expressed as mean±SD of three separate wells and individual comparisons were made with Student's t-test (SigmaPlot 9.0 program). The results were normalized to the normoxia-treated cells. Statistical significance (*) p<0.05 as compared to normoxia/DMSO-treated cells and (§) hypoxia/DMSO treated cells. Results

Experiment [2] deals with spontaneously beating neonatal rat cardiomyocytes (NRCMs). The experiment can be described thus: Spontaneous beating rate of neonatal rat cardiomyocytes (anti-arrhythmic cell model). Format: cell-based. Conditions: 20 nM or 30 nM; comparison between analogs. The protocol: The compounds include analogues being part of the invention (Comp-01 to Comp-05), which were synthesized as described in example 1, and additional related compounds (Comp-06 to Comp-13). A 1000-fold stock solutions in ethanol of the test compounds was prepared before use.
In order to measure the biological activities of metabolically robust analogs of CYP-eicosanoids an established cell model was used (Kang, J. X. et al., Proc Natl Acad Sci USA, 1994. 91(21): p. 9886-90). The spontaneously beating neonatal rat cardiomyocytes (NRCMs) are a model system to investigate anti-arrhythmic effects of test-compounds. […]
Isolation and cultivation of NRCMs were performed as described previously (Wallukat, G et al., J Clin Invest. 1999; 103: 945-952; Falck, J R et al., J Med Chem. 2011 Jun. 23; 54(12):4109-18). […] After four hours of incubation cells were adopted for 10 min to 31° C. and beating was recorded using an inverted microscope (Leica DM IRB) equipped with a CCD camera and coupled to an IonOptix (software: IonWizard6, IonOptix). To determine the basal rate, 6 to 8 individual clusters were selected and the number of contractions was counted for 15 sec. After that, the compound to be tested was added to the culture and the beating rate of the same clusters was monitored 5 min later again. […]

For the compound `CCC1OC1C/C=C\C/C=C\C/C=C\C/C=C\CCCC(=O)O` (stereo not shown) [17,18-EEQ, reference compound], in experiment [1] (30 nM), the “reduction of cellular necrosis (LDH-release)” value turned out to be 41%, the “amelioration of loss of cell number” value is on record as “did not significantly affect cell number” and the reduction of apoptosis entry is reported as “not at the low concentration tested”. Moreover, in experiment [1] (10 μM), the “reduction of cellular necrosis (LDH-release)” value was 37%, the “amelioration of loss of cell number” value is listed as “did not significantly affect cell number” and the reduction of apoptosis is listed as 43%.

For the compound `CNC(=O)C(=O)NCCCCc1ccccc1CCCCCCOCC(=O)O` [Comp-05], in experiment [2], the “negative chronotropic effect on NRCMs, in words” value is “without major loss of activity”.

The record behind these values is patent publication US11096910B2, “Metabolically robust analogs of CYP-eicosanoids for the treatment of cardiac disease” (OMEICOS THERAPEUTICS GMBH, priority 2015, dated 2021).
